{"source": "paper PMC9260974", "about": "(BMC Pharmacology & Toxicology, 2022)", "origin": "cited, not measured here", "details": "in vivo, po; cited from earlier work", "data": [{"smiles": "C[C@H](CS)C(=O)N1CCC[C@H]1C(=O)O", "note": "[captopril]", "values": [{"measurement": "Reduction of bioavailability by food", "value": "35-50%"}]}]}
